The values below come from patent US8858952B2, “Methods and materials for generating T cells” (Mayo Foundation for Medical Education and Research, priority 2009, dated 2014).

The experiment relates to bone marrow-derived DC. Briefly: Cytokine and chemokine multiplex analysis of DC culture supernatant. As to conditions: DC culture media 48 hours after pulsing, versus native FR74. Type of experiment: cell-based. The procedure:
FIG. 14. […] Shown are the concentrations of cytokines within DC culture media 48 hours after pulsing with the indicated polypeptides. Each bar is the mean (±s.e.m.) of duplicates samples. A repeat experiment yielded similar results.
FIG. 15. […] Shown are the concentrations of chemokines within DC culture media 48 hours after pulsing with the indicated polypeptides. Each bar is the mean (±s.e.m.) of duplicate samples. A repeat experiment yielded similar results.
FIG. 24. Modified polypeptides induce different release of IL-6 and IL-12p70. Shown are the concentrations of IL-6 and IL-12p70 within DC culture media 48 hours after pulsing with the indicated polypeptides. Each bar is the mean (±s.e.m.) of duplicate samples. A repeat experiment yielded similar results. Values associate with each bar are the actual mean concentrations measured.
Another potential reason for the enhanced T cell activation is that epitope nesting results in enhancement of cytokines that facilitate the induction of T cell activation. […]
This hypothesis is tested using antibody neutralization. […] Cytokine levels in the sera are quantitated by analyzing 100 μL of each well on a Bio-Plex using Bio-Plex Manager software (ver.4.). […] Both the DC and the T cells can be assessed for expression of the receptors using flow cytometry. […]

Entries after “also recorded” stand apart in the source; their conditions may differ. Where no end group is shown, it is not given here. [ ]: non-standard residue; d: D form. Ava = NCCCCC(=O)O

In the case of “FR74.4: dual conjugated polypeptide: FR74 nested between Ii-key and DC3 (Ac-LRMK[Ava]KDISYLYRFNWNHCGRARRFYPSYHSTPQRP)”, the “cytokine release by DC” value (FIG. 14) is “selectively induces expression of IL-1α, IL-6, IL-12p70, IL-13 and TNF-α; also recorded: enhanced the release of IL-1α, IL-6, and IL-12p70”. For the setting “FIG. 15”, the “chemokine levels produced by DC” value was “significantly higher levels of the T cell attracting chemokines, CCL7 (MCP-3), CCL1 (KC) CXCL10 (IP-10); also recorded: elevated levels of CCL7, CXCL1, and CXCL10”.
